In article PMC9402538, “Rational design of a sensitivity-enhanced tracer for discovering efficient APC–Asef inhibitors” (Nature Communications, 2022):
Values joined by “and” are separate entries in the source; they are usually repeats but may differ in a detail not shown here. Equal values may be shown once. “Also recorded” adds a separate entry of the source. Read-outs that look alike come from different tables or passages of the source. Where a SMILES comes first, the peptide text is derived from it. The star is where a group is joined. Benzoyl(4-OMe) = COc1ccc(C(=O)*)cc1

Columns and labels:
[1] = target: T1, His-tagged APC (303–739) (Homo sapiens, UniProt P25054); assay: Surface plasmon resonance (Biacore 8K); format: binding
T1 sequence (P25054 303-739): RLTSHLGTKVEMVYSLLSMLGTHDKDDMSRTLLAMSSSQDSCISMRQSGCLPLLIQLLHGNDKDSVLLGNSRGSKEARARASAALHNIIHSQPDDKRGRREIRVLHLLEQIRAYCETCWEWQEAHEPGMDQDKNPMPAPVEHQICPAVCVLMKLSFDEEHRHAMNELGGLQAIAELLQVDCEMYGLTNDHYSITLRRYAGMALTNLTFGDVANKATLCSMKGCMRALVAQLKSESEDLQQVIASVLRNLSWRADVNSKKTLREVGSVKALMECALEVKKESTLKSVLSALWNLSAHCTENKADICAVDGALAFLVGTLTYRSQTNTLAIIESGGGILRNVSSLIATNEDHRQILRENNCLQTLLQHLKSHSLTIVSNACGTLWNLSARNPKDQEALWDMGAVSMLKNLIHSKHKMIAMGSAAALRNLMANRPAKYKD
Procedure: SPR experiments were performed using a Biacore 8 K system equipped with a CM5 sensor chip. […] The ligand at a 10 μg mL^-1 concentration in 10 mM sodium acetate, pH 5.0, was immobilized on flow cell 2; flow cell 1 was left blank to serve as a reference surface. […] To collect kinetic binding data, a serial concentration of peptide inhibitors in 1× PBS, pH 7.4, was injected over the two flow cells at a flow rate of 30 μL min^-1 and a temperature of 25 °C. The complex was allowed to associate and dissociate for 60–240 and 150–600 s, respectively. The experiments were performed in triplicate. […] The data were fitted to a Langmuir 1:1 binding model using the local Rmax analysis option available in the Biacore insight evaluation software.

[2] = target: T2, APC–Asef PPI (FLAG-tagged APC (303–876), HA-tagged Asef (170–632)) (Homo sapiens, UniProt P25054); assay: Exogenous Co-IP of APC–Asef in drug-treated HEK293T cell lysate; format: biochemical; details: HEK293T cell lysate, 0.2, 1 and 5 μM, 2 h
T2 construct: FLAG-tagged APC (303–876) and hemagglutinin (HA)-tagged Asef (170–632) plasmids; expressed in transfected cells; host or cells: HEK293T (lysate treated with compound)
T2 sequence (P25054 303-876): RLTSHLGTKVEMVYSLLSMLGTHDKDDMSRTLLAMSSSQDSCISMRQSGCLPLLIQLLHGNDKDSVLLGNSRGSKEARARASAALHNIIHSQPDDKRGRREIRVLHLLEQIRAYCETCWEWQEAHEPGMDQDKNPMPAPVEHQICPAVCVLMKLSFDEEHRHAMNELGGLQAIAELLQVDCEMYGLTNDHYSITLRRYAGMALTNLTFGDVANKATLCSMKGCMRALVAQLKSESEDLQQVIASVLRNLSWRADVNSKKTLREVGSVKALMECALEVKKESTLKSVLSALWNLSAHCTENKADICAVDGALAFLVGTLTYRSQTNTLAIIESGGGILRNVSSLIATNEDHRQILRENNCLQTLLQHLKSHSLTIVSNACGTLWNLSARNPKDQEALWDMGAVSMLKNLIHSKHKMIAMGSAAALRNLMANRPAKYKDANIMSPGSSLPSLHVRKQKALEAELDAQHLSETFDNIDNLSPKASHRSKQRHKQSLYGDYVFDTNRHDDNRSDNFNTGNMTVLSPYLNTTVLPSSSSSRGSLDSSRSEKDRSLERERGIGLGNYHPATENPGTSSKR
Procedure: To investigate the effect of MAI-516 on the APC–Asef PPI, we first examined whether MAI-516 could perturb the APC–Asef PPI in cell lysates. HEK293T cells were transiently transfected with FLAG-tagged APC (303–876) and hemagglutinin (HA)-tagged Asef (170–632) plasmids. The cell lysates were harvested several hours after transfection and treated with different concentrations of MAI-203 and MAI-516 for 2 h; then, they were incubated with anti-FLAG® M2 affinity gel (Sigma; A2220) for 3 h at 4 °C.

[3] = test system: SW480 cells; assay: xCELLigence RTCA-DP migration assay, SW480; format: cell-based; details: for Cell index: 50 μM
Procedure: Real-time cell migration was evaluated using the xCELLigence RTCA-DP system (Roche). Briefly, SW480 cells were serum-starved for 8 h, digested, and resuspended in serum-free medium. The wells in the upper chamber of CIM plate 16 were preequilibrated with 30 μL serum-free medium for 1 h and filled with 100 μL of 4 × 10^4 serum-starved SW480 cells per well. The wells in the lower chamber of CIM plate 16 were filled with complete medium. […] Cell index values were detected every 15 min throughout the procedure, and the data were collected and analyzed with RTCA software (version 2.3).

In the case of `COc1ccc(C(=O)N[C@@H](C)C(=O)NCC(=O)N[C@@H](CCC(=O)O)C(=O)N[C@@H](CO)C(=O)N[C@@H](CC(C)C)C(=O)N[C@@H](Cc2ccc(O)cc2)C(=O)N[C@@H](CCC(=O)O)C(N)=O)cc1` [MAI-516] ({Benzoyl(4-OMe)}-AGESLYE-NH2), the “RT (RT = 1/koff)” value [1] is reported as 135 s, the “Relative response at equilibrium” value ([1]; 1.5625 nM) is reported as 2.9457 RU and the “Relative response at equilibrium” value ([1]; 3.125 nM) is reported as 3.565 RU. The “Relative response at equilibrium” value ([1]; 6.25 nM) was 5.67 RU, the “Relative response at equilibrium” value ([1]; 12.5 nM) was 10.1156 RU and the “Relative response at equilibrium” value ([1]; 25 nM) was 17.7318 RU. The “Relative response at equilibrium” value ([1]; 50 nM) was 24.4156 RU, the “Relative response at equilibrium” value ([1]; 100 nM) was 27.6681 RU and the “Relative response at equilibrium” value ([1]; 200 nM) was 31.5021 RU. The Kd ([1]; SPR, Repeat 1, read-out: KD Repeat 1) was 19.9 nM, the koff ([1]; SPR, Repeat 1, read-out: koff Repeat 1) was 0.00848 s⁻¹ and the kon ([1]; SPR, Repeat 1, read-out: kon Repeat 1) was 427000 M⁻¹ s⁻¹. For the same molecule, the Kd ([1]; SPR, Repeat 2, read-out: KD Repeat 2) was 18.8 nM, the koff ([1]; SPR, Repeat 2, read-out: koff Repeat 2) was 0.00807 s⁻¹ and the kon ([1]; SPR, Repeat 2, read-out: kon Repeat 2) was 430000 M⁻¹ s⁻¹. For the same molecule, the Kd ([1]; SPR, Repeat 3, read-out: KD Repeat 3) was 16 nM, the koff ([1]; SPR, Repeat 3, read-out: koff Repeat 3) was 0.00564 s⁻¹ and the kon ([1]; SPR, Repeat 3, read-out: kon Repeat 3) was 353000 M⁻¹ s⁻¹. It also gave a Kd ([1]; SPR, mean of 3 repeats, read-out: KD mean) of 18.2 nM, a koff ([1]; SPR, mean of 3 repeats, read-out: koff mean) of 0.0074 s⁻¹ and a kon ([1]; SPR, mean of 3 repeats, read-out: kon mean) of 403000 M⁻¹ s⁻¹. The RT ([1]; SPR, single value printed in the Repeat 1 column) was 135 s, the “effect on APC–Asef PPI (Co-IP)” value [2] was “dose-dependently attenuate the APC–Asef PPI” and the Cell index ([3]; Time 2.86 h) was 0.0858 and 0.0963 and 0.0628 and 0.0638. The Cell index ([3]; Time 3.11 h) was 0.0938 and 0.1001 and 0.0718 and 0.0644, the Cell index ([3]; Time 25.38 h) was 0.4156 and 0.4495 and 0.4015 and 0.3302 and the Cell index ([3]; Time 25.63 h) was 0.4241 and 0.453 and 0.4081 and 0.333. The Cell index ([3]; Time 25.88 h) was 0.4262 and 0.4606 and 0.4096 and 0.3376, the Cell index ([3]; Time 26.13 h) was 0.4312 and 0.4671 and 0.4174 and 0.3414 and the Cell index ([3]; Time 26.38 h) was 0.4401 and 0.4711 and 0.4224 and 0.35. The Cell index ([3]; Time 26.63 h) was 0.4427 and 0.4808 and 0.4256 and 0.3526, the Cell index ([3]; Time 26.88 h) was 0.4494 and 0.4864 and 0.4295 and 0.3559 and the Cell index ([3]; Time 27.13 h) was 0.4537 and 0.4902 and 0.438 and 0.3614. The Cell index ([3]; Time 27.38 h) was 0.4561 and 0.4966 and 0.4408 and 0.3637, the Cell index ([3]; Time 27.63 h) was 0.459 and 0.5021 and 0.4433 and 0.3665 and the Cell index ([3]; Time 27.88 h) was 0.4663 and 0.508 and 0.4508 and 0.3739. The Cell index ([3]; Time 28.13 h) was 0.4709 and 0.5146 and 0.4572 and 0.3773, the Cell index ([3]; Time 28.38 h) was 0.4763 and 0.5221 and 0.4622 and 0.3808 and the Cell index ([3]; Time 28.63 h) was 0.4818 and 0.5253 and 0.4661 and 0.3892. The Cell index ([3]; Time 28.88 h) was 0.484 and 0.5373 and 0.4696 and 0.3897, the Cell index ([3]; Time 29.13 h) was 0.4908 and 0.5435 and 0.4752 and 0.3937 and the Cell index ([3]; Time 29.38 h) was 0.4994 and 0.5497 and 0.4817 and 0.3996. For the same molecule, the Cell index ([3]; Time 29.63 h) was 0.5038 and 0.5558 and 0.4857 and 0.4052, the Cell index ([3]; Time 29.88 h) was 0.5108 and 0.5614 and 0.4912 and 0.4104 and the Cell index ([3]; Time 30.13 h) was 0.5142 and 0.5705 and 0.496 and 0.4144. The Cell index ([3]; Time 30.38 h) was 0.5237 and 0.5775 and 0.5022 and 0.4227, the Cell index ([3]; Time 30.63 h) was 0.5252 and 0.5853 and 0.505 and 0.4265 and the Cell index ([3]; Time 30.88 h) was 0.5376 and 0.5896 and 0.5138 and 0.4332. The “cell migration (RTCA)” value ([3]; SW480, MAI-516) was “dose not inhibit the migration; also recorded: no apparent impact”.
